Earlier results as cited in patent US20210113548A1, “METHODS FOR DETERMINING A DRUG DOSING REGIMEN” (Clear Creek Bio, Inc., priority 2019, published 2021).

Assays:
[1] = test system: mouse model of AML
[2] = test system: solid tumor malignancies; conditions: administered over a 5-day period followed by a 3-week gap or once per week for three weeks followed by a 1-week gap

Cc1c(-c2ccc(-c3ccccc3F)cc2)nc2ccc(F)cc2c1C(=O)O [brequinar, 6-fluoro-2-(2′-fluoro-1,1′ biphenyl-4-yl)-3-methyl-4-quinoline carboxylic acid]
adverse effects of daily administration of high doses [1]: weight loss, anemia, and thrombocytopenia
efficacy in treatment of solid tumor malignancies [2]: ineffective
